The values that follow come from US8883963B2 (Cadila Healthcare Limited, priority 2007, dated 2014).

Data set [1] can be described thus: Stability in simulated intestinal fluid. The data set is classed as in vitro ADME. As to conditions: 2 μM peptidomimetic, simulated intestinal fluid pH 7.5, 37° C.; for half-life at 2 μM: read-out: half-life (t1/2) when incubated with simulated intestinal fluid. The protocol:
(§1) Reactions were terminated by the addition of TFA/H2O (15 mL, 10% (v/v)). […] The column was equilibrated with TFA/H20, at a flow rate of 1 mL/min.

A further data set has as its target T1, human glucagon receptor (Homo sapiens, UniProt P47871).
T1 construct: The full-length cDNA was cloned in pcDNA3.1 (Invitrogen); expressed in transfected cells
Description: In vitro human glucagon antagonist activity (inhibition of cAMP production) in CHO/human glucagon R cells. Particulars: with saturated concentration of glucagon peptide. The data set is classed as cell-based. A general note: cAMP levels reflect the balance of adenylyl cyclase and phosphodiesterase activity.

A short description of data set [2]: Stability in human plasma. Particulars: 2 μM peptidomimetic, pooled human plasma, 37° C.; for half-life at 2 μM: pH 7.8, read-out: half-life (t1/2) when incubated with human plasma. The data set is classed as in vitro ADME. The procedure:
as §1

Data set [3] in a line: Stability in liver microsomes. Particulars: 2 μM peptidomimetic, human liver microsomes, 37° C.; for half-life at 2 μM: pH 7.8, read-out: half-life (t1/2) when incubated with liver microsomes. The data set is classed as in vitro ADME. The protocol:
as §1
On the technique in general: Liver microsomes are vesicles of endoplasmic reticulum, rich in cytochrome P450 enzymes.

For a further data set, the target named is DPP IV (Homo sapiens, UniProt P27487). Put plainly: Stability against DPP IV enzyme. Particulars: 37° C.; for % degradation of peptidomimetics in 24 h when incubated with DPP-IV enzyme: 2 μM peptidomimetic; for half-life at 2 μM: DPP IV enzyme, pH 7.8, 2 μM peptidomimetic, read-out: half-life (t1/2) when incubated with DPP-IV enzyme. The data set is classed as in vitro ADME. The procedure: as §1
Sequence of DPP IV (P27487 whole entry, species assumed): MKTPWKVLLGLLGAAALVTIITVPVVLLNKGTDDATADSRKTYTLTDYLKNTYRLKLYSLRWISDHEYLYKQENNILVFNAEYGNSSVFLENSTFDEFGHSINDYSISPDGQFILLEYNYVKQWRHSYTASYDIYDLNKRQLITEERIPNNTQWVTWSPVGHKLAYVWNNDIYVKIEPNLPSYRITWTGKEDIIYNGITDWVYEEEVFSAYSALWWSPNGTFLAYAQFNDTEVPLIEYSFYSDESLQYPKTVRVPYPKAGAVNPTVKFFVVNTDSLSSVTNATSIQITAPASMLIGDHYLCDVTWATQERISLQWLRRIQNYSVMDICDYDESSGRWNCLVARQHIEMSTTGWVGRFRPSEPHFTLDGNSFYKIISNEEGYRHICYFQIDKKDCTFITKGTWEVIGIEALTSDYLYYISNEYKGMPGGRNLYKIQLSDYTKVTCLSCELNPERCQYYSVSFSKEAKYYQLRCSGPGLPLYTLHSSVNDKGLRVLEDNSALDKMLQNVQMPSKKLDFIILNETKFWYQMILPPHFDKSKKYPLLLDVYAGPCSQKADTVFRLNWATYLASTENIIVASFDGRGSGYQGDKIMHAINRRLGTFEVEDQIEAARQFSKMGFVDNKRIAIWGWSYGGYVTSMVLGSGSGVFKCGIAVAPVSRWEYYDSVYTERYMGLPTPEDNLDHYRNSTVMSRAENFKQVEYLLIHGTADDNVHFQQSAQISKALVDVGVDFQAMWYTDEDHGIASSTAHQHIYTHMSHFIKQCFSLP

The nature of data set [4]: Stability in simulated gastric fluid. The data set is classed as in vitro ADME. Particulars: 2 μM peptidomimetic, simulated gastric fluid pH 1.5, 37° C.; for half-life at 2 μM: read-out: half-life (t1/2) when incubated with simulated gastric fluid. The procedure:
as §1

For a further data set, the target named is T2, Human GLP-1 receptor (Homo sapiens, UniProt P43220).
T2 construct: The full-length cDNA was cloned in pcDNA3.1(+); expressed in transfected cells
T2 sequence (P43220 24-463): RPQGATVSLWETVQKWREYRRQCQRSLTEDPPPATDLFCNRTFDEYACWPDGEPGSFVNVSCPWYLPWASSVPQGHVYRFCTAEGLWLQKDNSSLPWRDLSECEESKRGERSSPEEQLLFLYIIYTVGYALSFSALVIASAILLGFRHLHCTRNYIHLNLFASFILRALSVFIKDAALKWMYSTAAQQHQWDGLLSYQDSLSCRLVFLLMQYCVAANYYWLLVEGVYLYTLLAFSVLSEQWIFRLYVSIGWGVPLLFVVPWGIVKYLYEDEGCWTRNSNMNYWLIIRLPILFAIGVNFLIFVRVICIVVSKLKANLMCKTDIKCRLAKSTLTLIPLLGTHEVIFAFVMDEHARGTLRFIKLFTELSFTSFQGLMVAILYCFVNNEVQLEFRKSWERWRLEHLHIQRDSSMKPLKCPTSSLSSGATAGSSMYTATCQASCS
Put plainly: In vitro Human GLP-1 R agonist activity (cyclic AMP determination) in CHO/human GLP1R cells. The data set is classed as cell-based.

T1 sequence (P47871 26-477): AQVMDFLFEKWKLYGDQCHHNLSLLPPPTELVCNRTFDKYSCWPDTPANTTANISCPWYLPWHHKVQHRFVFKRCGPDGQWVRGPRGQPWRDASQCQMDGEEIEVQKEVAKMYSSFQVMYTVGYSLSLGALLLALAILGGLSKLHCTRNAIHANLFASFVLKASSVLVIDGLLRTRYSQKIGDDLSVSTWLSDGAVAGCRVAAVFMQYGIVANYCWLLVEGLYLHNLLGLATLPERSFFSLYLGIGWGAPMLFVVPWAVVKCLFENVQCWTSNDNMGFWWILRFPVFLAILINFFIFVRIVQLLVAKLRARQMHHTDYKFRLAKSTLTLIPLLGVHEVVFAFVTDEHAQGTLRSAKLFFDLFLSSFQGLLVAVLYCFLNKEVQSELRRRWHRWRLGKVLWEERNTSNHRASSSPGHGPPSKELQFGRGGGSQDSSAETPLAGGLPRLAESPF

Consider `CCc1cc(OC)ccc1-c1ccc(CC(NC(=O)[C@H](CC(=O)O)NC(=O)[C@H](CO)NC(=O)[C@@H](NC(=O)C(C)(Cc2ccccc2F)NC(=O)[C@@H](NC(=O)CNC(=O)C(CCC#N)NC(=O)C(C)(C)NC(=O)[C@@H](N)Cc2c[nH]cn2)[C@H](C)O)[C@H](C)O)C(=S)NC(CCCc2ccccc2F)C(N)=O)cc1` (single isomer, unassigned) [compound 168], for which the “half-life (t1/2) when incubated with simulated intestinal fluid” value in data set [1] was “(6) h”. Also, the “% degradation of peptidomimetics in 24 h when incubated with simulated intestinal fluid” value (“% degradation … with simulated intestinal fluid” for short) in data set [1] was 42%. In addition, the “Human Glucagon receptor antagonistic activity shown as inhibition of cAMP production of Glucagon peptide” value was found to be 21 ± 0.11 pmol/ml/μg prt at human glucagon receptor (1 nM test compound); 19 ± 0.02 pmol/ml/μg prt at human glucagon receptor (10 nM test compound); 18 ± 0.07 pmol/ml/μg prt at human glucagon receptor (100 nM test compound); 18 ± 0.03 pmol/ml/μg prt at human glucagon receptor (1 μM test compound); 16 ± 0.02 pmol/ml/μg prt on human glucagon receptor (10 μM test compound). Also, the “% degradation of peptidomimetics in 24 h when incubated with human plasma” value (shortened to “% degradation … with human plasma”) in data set [2] is given as 70%. For the same compound, the half-life at 2 μM was 8 h in data set [2], 1 h in data set [3] and 9 h at DPP IV. Moreover, the “% degradation of peptidomimetics in 24 h when incubated with liver microsomes” value (from here on “% degradation … with liver microsomes”) in data set [3] is 78%. At DPP IV, the “% degradation of peptidomimetics in 24 h when incubated with DPP-IV enzyme” value (“% degradation … with DPP-IV enzyme” for short) came to 72%. Moreover, the “half-life (t1/2) when incubated with simulated gastric fluid” value in data set [4] was “(8) h”. Moreover, the “% degradation of peptidomimetics in 24 h when incubated with simulated gastric fluid” value (from here on “% degradation … with simulated gastric fluid”) in data set [4] was 12%. Besides, the “Human GLP-1 R activity (cAMP release), % activity with respect to control” value on Human GLP-1 receptor (1 nM test compound) came to 96 ± 0.09%; on Human GLP-1 receptor (10 nM test compound), 99 ± 0.07%; on Human GLP-1 receptor (100 nM test compound) it was 99 ± 0.04%; at Human GLP-1 receptor (1 μM test compound), 99 ± 0.01%; at Human GLP-1 receptor (10 μM test compound), 99 ± 0.08%.
For the compound `CCc1cc(OC)ccc1-c1ccc(CC(NC(=O)[C@H](CC(=O)O)NC(=O)[C@H](CO)NC(=O)[C@@H](NC(=O)C(C)(Cc2ccccc2F)NC(=O)[C@@H](NC(=O)CNC(=O)C(CCC#N)NC(=O)C(C)(C)NC(=O)[C@H](Cc2c[nH]cn2)NC(C)=O)[C@@H](C)O)[C@@H](C)O)C(=O)NC(CCCc2ccccc2)C(N)=O)cc1` (single isomer, unassigned) [compound 205], the “% degradation … with simulated intestinal fluid” value in data set [1] was 00%. Also, the half-life at 2 μM (in data set [1]; in data set [2]; on DPP IV; in data set [4]) was more than 24 h in each case. For the same compound, the “Human Glucagon receptor antagonistic activity shown as inhibition of cAMP production of Glucagon peptide” value turned out to be 4 ± 0.16 pmol/ml/μg prt at human glucagon receptor (1 nM test compound); 2 ± 0.11 pmol/ml/μg prt on human glucagon receptor (10 nM test compound); 0 pmol/ml/μg prt at human glucagon receptor (100 nM test compound); 0 pmol/ml/μg prt on human glucagon receptor (1 μM test compound); 0 pmol/ml/μg prt at human glucagon receptor (10 μM test compound). In addition, the “% degradation … with human plasma” value in data set [2] is listed as 00%. Also, in data set [3], the “half-life (t1/2) when incubated with liver microsomes” value is recorded as “(5) h”. Also, the “% degradation … with liver microsomes” value in data set [3] came out at 33%. Also, at DPP IV, the “% degradation … with DPP-IV enzyme” value worked out at 00%. For the same compound, in data set [4], the “% degradation … with simulated gastric fluid” value is 00%. Besides, the “Human GLP-1 R activity (cAMP release), % activity with respect to control” value at Human GLP-1 receptor (1 nM test compound) was found to be 96 ± 0.09%; at Human GLP-1 receptor (10 nM test compound) it was 99 ± 0.07%; on Human GLP-1 receptor (100 nM test compound) it was 99 ± 0.04%; on Human GLP-1 receptor (1 μM test compound) it was 99 ± 0.01%; on Human GLP-1 receptor (10 μM test compound), 99 ± 0.08%.
In the case of `CCc1cc(OC)ccc1-c1ccc(CC(NC(=O)[C@H](CC(=O)O)NC(=O)[C@H](CO)NC(=O)[C@@H](NC(=O)[C@H](Cc2ccccc2)NC(=O)[C@@H](NC(=O)CNC(=O)[C@H](CCC(N)=O)NC(=O)C2(NC(=O)[C@@H](N)Cc3c[nH]cn3)CC2)[C@@H](C)O)[C@@H](C)O)C(=O)NC(CCCc2ccc(F)cc2C(F)(F)F)C(N)=O)cc1` (single isomer, unassigned) [compound 72], the “half-life (t1/2) when incubated with simulated intestinal fluid” value in data set [1] is on record as “(6) h”. For the same compound, the “% degradation … with simulated intestinal fluid” value in data set [1] is 41%. The “Human Glucagon receptor antagonistic activity shown as inhibition of cAMP production of Glucagon peptide” value was 9 ± 0.11 pmol/ml/μg prt on human glucagon receptor (1 nM test compound); 6 ± 0.12 pmol/ml/μg prt at human glucagon receptor (10 nM test compound); 5 ± 0.14 pmol/ml/μg prt at human glucagon receptor (100 nM test compound); 3 ± 0.22 pmol/ml/μg prt at human glucagon receptor (1 μM test compound); 0 pmol/ml/μg prt on human glucagon receptor (10 μM test compound). The “% degradation … with human plasma” value in data set [2] was 70%. Further, the figures for the half-life at 2 μM (in data set [2]; in data set [3]; at DPP IV) were 8 h, 1 h and 9 h, respectively. Besides, the “% degradation … with liver microsomes” value in data set [3] is reported as 77%. In addition, on DPP IV, the “% degradation … with DPP-IV enzyme” value is 86%. For the same compound, the “half-life (t1/2) when incubated with simulated gastric fluid” value in data set [4] is listed as “(8) h”. For the same compound, in data set [4], the “% degradation … with simulated gastric fluid” value is listed as 15%. The “Human GLP-1 R activity (cAMP release), % activity with respect to control” value on Human GLP-1 receptor (1 nM test compound) was 45 ± 0.022%; at Human GLP-1 receptor (10 nM test compound) it was 84 ± 0.46%; at Human GLP-1 receptor (100 nM test compound), 90 ± 0.41%; on Human GLP-1 receptor (1 μM test compound) it was 99 ± 0.66%; on Human GLP-1 receptor (10 μM test compound), 99 ± 0.03%.
Consider `CCc1cc(OC)ccc1-c1ccc(CC(NC(=S)[C@H](CC(=O)O)NC(=O)[C@H](CO)NC(=O)[C@@H](NC(=O)C(C)(Cc2ccccc2F)NC(=O)[C@@H](NC(=O)CNC(=O)C(CCC#N)NC(=O)C(C)(C)NC(=O)[C@@H](N)Cc2c[nH]cn2)[C@H](C)O)[C@H](C)O)C(=S)NC(CCCc2ccccc2)C(N)=O)cc1` (single isomer, unassigned) [compound 178], for which the “% degradation … with simulated intestinal fluid” value in data set [1] was 00%. In addition, the half-life at 2 μM (in data set [1]; in data set [2]; at DPP IV; in data set [4]) was more than 24 h each time. The “Human Glucagon receptor antagonistic activity shown as inhibition of cAMP production of Glucagon peptide” value at human glucagon receptor (1 nM test compound), on human glucagon receptor (10 nM test compound), on human glucagon receptor (100 nM test compound), on human glucagon receptor (1 μM test compound) and at human glucagon receptor (10 μM test compound) was 0 pmol/ml/μg prt each time. The “% degradation … with human plasma” value in data set [2] stood at 00%. Moreover, the “half-life (t1/2) when incubated with liver microsomes” value in data set [3] was “(5) h”. In data set [3], the “% degradation … with liver microsomes” value came out at 35%. Moreover, at DPP IV, the “% degradation … with DPP-IV enzyme” value came out at 00%. In addition, in data set [4], the “% degradation … with simulated gastric fluid” value is 00%. The “Human GLP-1 R activity (cAMP release), % activity with respect to control” value on Human GLP-1 receptor (1 nM test compound) is 39 ± 0.12%; at Human GLP-1 receptor (10 nM test compound), 80 ± 0.15%; at Human GLP-1 receptor (100 nM test compound) it was 86 ± 0.18%; on Human GLP-1 receptor (1 μM test compound), 95 ± 0.03%; at Human GLP-1 receptor (10 μM test compound), 98 ± 0.09%.
